Assay results from patent publication US20130324412A1, “N-ALKOXYAMIDES OF 6-(SUBSTITUTED PHENYL)-4-AMINOPICOLINATES AND 2-(SUBSTITUTED PHENYL)-6-AMINO-4-PYRIMIDINECARBOXYLATES AND THEIR USE AS SELECTIVE HERBICIDES FOR CROPS” (DOW AGROSCIENCES LLC, priority 2009, published 2013).

Assays:
Format in all cases: in vivo
[1] = tested on: wild buckwheat (Polygonum convululus); assay: Postemergence herbicidal activity in corn, wild buckwheat; conditions: corn test, visual rating after 21 d, probit analysis, dose to kill or control 80 percent
Protocol: (§1) Seeds of corn and the desired weed species were planted in Sun Gro MetroMix 360 planting mixture, which typically has a pH of 6.0 to 6.8 and an organic matter content of about 30 percent, in plastic pots with a surface area of 95 cm^2. When required to ensure good germination and healthy plants, a fungicide treatment and/or other chemical or physical treatment was applied. The plants were grown for 7-21 d in a greenhouse with an approximate 15-h photoperiod which was maintained at about 23-29° C. during the day and 22-28° C. during the night. Nutrients and water were added on a regular basis and supplemental lighting was provided with overhead metal halide 1000-Watt lamps as necessary. The corn plants were utilized for testing when they reached the second true leaf stage. The weed species were utilized at the first or second true leaf stage.
(§2) A weighed amount, determined by the highest rate to be tested, of each test compound was dissolved in 4 mL of a 97:3 v/v mixture of acetone and DMSO to obtain concentrated stock solutions. […] The concentrated stock solutions obtained were diluted with 20 mL of an aqueous mixture containing acetone, water, isopropyl alcohol, DMSO, Atplus 411F crop oil concentrate, and Triton X-155 surfactant in a 48.5:39:10:1.5:1.0:0.02 v/v ratio to obtain spray solutions containing the highest application rates. […]
(§3) The treated plants and control plants were placed in a greenhouse as described above and watered by sub-irrigation to prevent wash-off of the test compounds. After 21 d, the condition of the test plants as compared with that of the untreated plants was determined visually and scored on a scale of 0 to 100 percent where 0 corresponds to no injury and 100 corresponds to complete kill. […]

[2] = tested on: lambsquarters (Chenopodium album); assay: Postemergence herbicidal activity in corn, lambsquarters; conditions: corn test, visual rating after 21 d, probit analysis, dose to kill or control 80 percent
Protocol: as §1, §2, §3

[3] = tested on: sicklepod (Casia obtusifolia); assay: Postemergence herbicidal activity in corn, sicklepod; conditions: corn test, visual rating after 21 d, probit analysis, dose to kill or control 80 percent
Protocol: as §1, §2, §3

[4] = tested on: pigweed, redroot (Amaranthus retroflexus); assay: Postemergence herbicidal activity in corn, redroot pigweed; conditions: corn test, visual rating after 21 d, probit analysis, dose to kill or control 80 percent
Protocol: as §1, §2, §3

[5] = tested on: velvetleaf (Abutilon theophrasti); assay: General postemergence herbicidal activity, velvetleaf; conditions: post-emergence, 336 h, postemergence, after 14 d, 0 = no injury, 100 = complete kill, read-out: ABUTH % Visual Injury; for pest or weed control at 140 g/ha: 140 g ai/ha; for pest or weed control at 70 g/ha: 70 g ai/ha
Outline: (§4)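 Greenhouse plants at first to second true leaf stage sprayed overhead at 187 L/ha in acetone/DMSO with crop oil concentrate and surfactant, at a high rate plus ½× to 1/16× serial dilutions. Injury rated visually after 14 d against solvent-blank controls, 0 (none) to 100% (complete kill).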

corn (Zea mays) [6] = assay: General postemergence herbicidal activity, corn; conditions: post-emergence, 336 h, postemergence, after 14 d, 0 = no injury, 100 = complete kill, read-out: ZEAMX % Visual Injury; for plant injury at 140 g/ha: 140 g ai/ha; for plant injury at 70 g/ha: 70 g ai/ha
Outline: as §4

corn (Zea mays) [7] = assay: Postemergence herbicidal activity in corn, crop; conditions: visual rating after 21 d, probit analysis, dose to kill or control 20 percent
Protocol: as §1, §2, §3

[8] = tested on: wild buckwheat (Polygonum convululus); assay: General postemergence herbicidal activity, wild buckwheat; conditions: post-emergence, 336 h, postemergence, after 14 d, 0 = no injury, 100 = complete kill, read-out: POLCO % Visual Injury; for pest or weed control at 140 g/ha: 140 g ai/ha; for pest or weed control at 70 g/ha: 70 g ai/ha
Outline: as §4

[9] = tested on: lambsquarters (Chenopodium album); assay: General postemergence herbicidal activity, lambsquarters; conditions: post-emergence, 336 h, postemergence, after 14 d, 0 = no injury, 100 = complete kill, read-out: CHEAL % Visual Injury; for pest or weed control at 140 g/ha: 140 g ai/ha; for pest or weed control at 70 g/ha: 70 g ai/ha
Outline: as §4

[10] = tested on: sugar beet (Beta vulgaris); assay: Postemergence herbicidal activity in sugar beet, crop; set-up: unit not given here; conditions: visual rating after 21 d, probit analysis, dose to kill or control 20 percent
Protocol: as §1, with “sugar beet” for “corn”, “MetroMix®” for “MetroMix”, “15-28” for “7-21”, “third or fourth” for “second”, “fourth” for “first or second”
(§5) A weighed amount, determined by the highest rate to be tested, of each test compound was dissolved in 4 mL of a 97:3 v/v mixture of acetone and DMSO to obtain concentrated stock solutions. […] The concentrated stock solutions obtained were diluted with 20 mL of an aqueous mixture containing acetone, water and Agri-Dex crop oil concentrate, in a 16.7:82.1:1.25 v/v ratio to obtain spray solutions containing the highest application rates. Additional application rates were obtained by serial dilution of 12 mL of the high rate solution into a solution containing 2 mL of 97:3 v/v mixture of acetone and DMSO and 10 mL of an aqueous mixture containing acetone, water and Agri-Dex crop oil concentrate, in a 16.7:82.1:1.25 v/v ratio to obtain ½×, ¼×, ⅛× and 1/16× rates of the high rate. Compound requirements are based upon a 12 mL application volume at a rate of 187 L/ha. Formulated compounds were applied to the plant material with an overhead Mandel track sprayer equipped with 8002E nozzles calibrated to deliver 187 L/ha over an application area of 0.503 m^2 at a spray height of 18 inches (43 cm) above the average plant canopy height. Control plants were sprayed in the same manner with the solvent blank.
(§6) The treated plants and control plants were placed in a greenhouse as described above and watered by sub-irrigation to prevent wash-off of the test compounds. After 21 d, the condition of the test plants as compared with that of the untreated plants was determined visually and scored on a scale of 0 to 100 percent where 0 corresponds to no injury and 100 corresponds to complete kill.
(§7) By applying the well-accepted probit analysis as described by J. Berkson in Journal of the American Statistical Society 1953, 48, 565, and by D. Finney in “Probit Analysis” Cambridge University Press (1952), the above data can be used to calculate GR20 and GR80 values, which are defined as growth reduction factors that correspond to the effective dose of herbicide required to kill or control 20 percent or 80 percent, respectively, of a target plant.

[11] = tested on: purple deadnettle (Lamium purpureum); assay: Postemergence herbicidal activity in oilseed rape (canola), purple deadnettle; set-up: unit not given here; conditions: oilseed rape (canola) test, visual rating after 21 d, probit analysis, dose to kill or control 80 percent
Protocol: as §1, with “oilseed rape (canola)” for “corn”, “MetroMix®” for “MetroMix”, “15-28” for “7-21”, “third or fourth” for “second”, “fourth” for “first or second”
as §5, §6, §7

[12] = tested on: lambsquarters (Chenopodium album); assay: Postemergence herbicidal activity in sugar beet, lambsquarters; set-up: unit not given here; conditions: sugar beet test, visual rating after 21 d, probit analysis, dose to kill or control 80 percent
Protocol: as §1, with “sugar beet” for “corn”, “MetroMix®” for “MetroMix”, “15-28” for “7-21”, “third or fourth” for “second”, “fourth” for “first or second”
as §5, §6, §7

[13] = tested on: lambsquarters (Chenopodium album); assay: Postemergence herbicidal activity in oilseed rape (canola), lambsquarters; set-up: unit: g ai/ha; conditions: oilseed rape (canola) test, visual rating after 21 d, probit analysis, dose to kill or control 80 percent
Protocol: as §1, with “oilseed rape (canola)” for “corn”, “MetroMix®” for “MetroMix”, “15-28” for “7-21”, “third or fourth” for “second”, “fourth” for “first or second”
as §5, §6, §7

[14] = tested on: purple deadnettle (Lamium purpureum); assay: Postemergence herbicidal activity in sugar beet, purple deadnettle; set-up: unit not given here; conditions: sugar beet test, visual rating after 21 d, probit analysis, dose to kill or control 80 percent
Protocol: as §1, with “sugar beet” for “corn”, “MetroMix®” for “MetroMix”, “15-28” for “7-21”, “third or fourth” for “second”, “fourth” for “first or second”
as §5, §3

[15] = tested on: winter oilseed rape (canola) (Brassica napus); assay: Postemergence herbicidal activity in oilseed rape (canola), crop; set-up: unit not given here; conditions: visual rating after 21 d, probit analysis, dose to kill or control 20 percent
Protocol: as §1, with “oilseed rape (canola)” for “corn”, “MetroMix®” for “MetroMix”, “15-28” for “7-21”, “third or fourth” for “second”, “fourth” for “first or second”
as §5, §6, §7

| SMILES | pest or weed control at 140 g/ha [5] | plant injury at 140 g/ha (corn (Zea mays) [6]) | pest or weed control at 140 g/ha [8] | pest or weed control at 140 g/ha [9] | BEAVA GR20 [10] | LAMPU GR80 [11] | CHEAL GR80 [12] | CHEAL GR80 [13] | LAMPU GR80 [14] | BRSNW GR20 [15] | pest or weed control at 70 g/ha [5] | plant injury at 70 g/ha (corn (Zea mays) [6]) | pest or weed control at 70 g/ha [8] | pest or weed control at 70 g/ha [9] | also measured |
| --- | --- | --- | --- | --- | --- | --- | --- | --- | --- | --- | --- | --- | --- | --- | --- |
| C=CCONC(=O)c1nc(-c2ccc(Cl)c(OC)c2F)cc(N)c1Cl [Compound 3, N-(2-Propenyloxy)-4-amino-3-chloro-6-(4-chloro-2-fluoro-3-methoxyphenyl)picolinamide] | 100% | 0% | 100% | 100% |  |  |  |  |  |  |  |  |  |  | POLCO GR80 [1]: <4 g ai/ha; CHEAL GR80 [2]: <4 g ai/ha; CASOB GR80 [3]: 5 g ai/ha; AMARE GR80 [4]: 5 g ai/ha; ZEAMX GR20 (corn (Zea mays) [7]): >35 g ai/ha |
| CCONC(=O)c1nc(-c2ccc(Cl)c(OC)c2F)cc(N)c1Cl [Compound 4, 4-Amino-3-chloro-6-(4-chloro-2-fluoro-3-methoxyphenyl)-N-ethoxypicolinamide] | 100% | 0% | 100% | 100% | >140 | <4.38 | <8.75 | 11 | <4.38 | >140 |  |  |  |  |  |
| C/C=C/CONC(=O)c1nc(-c2ccc(Cl)c(OC)c2F)cc(N)c1Cl [Compound 30, (E)-4-Amino-N-(2-butenyloxy)-3-chloro-6-(4-chloro-2-fluoro-3-methoxy-phenyl)picolinamide] |  |  |  |  | >140 | <4.38 | <8.75 | <8.75 | <4.38 | >70 | 100% | 50% | 100% | 100% |  |
| COc1c(Cl)ccc(-c2cc(N)c(Cl)c(C(=O)NOC/C=C/Cl)n2)c1F [Compound 31, (E)-4-Amino-3-chloro-6-(4-chloro-2-fluoro-3-methoxyphenyl)-N-(3-chloro-2-propenyl-oxy)picolinamide] |  |  |  |  | >140 |  | <8.75 |  |  |  | 100% | 5% | 100% | 100% |  |
| C=CCONC(=O)c1nc(-c2ccc(Cl)c(OC)c2F)c(F)c(N)c1Cl [Compound 39, N-(2-Propenyloxy)-4-amino-3-chloro-6-(4-chloro-2-fluoro-3-methoxyphenyl)-5-fluoropicolinamide] |  |  |  |  |  | <8.75 |  | 49 |  | >70 |  |  |  |  | pest or weed control at 17.5 g/ha ([5]; 17.5 g ai/ha): 100%; plant injury at 17.5 g/ha (corn (Zea mays) [6]; 17.5 g ai/ha): 45%; pest or weed control at 17.5 g/ha ([8]; 17.5 g ai/ha): 100%; pest or weed control at 17.5 g/ha ([9]; 17.5 g ai/ha): 100% |
| COc1c(Cl)ccc(-c2cc(N)c(Cl)c(C(=O)NOCc3cnc(Cl)s3)n2)c1F [Compound 41, 4-Amino-3-chloro-6-(4-chloro-2-fluoro-3-methoxyphenyl)-N-((2-chlorothiazol-5-yl)-methoxy)picolinamide] |  |  |  |  | 136 |  | 30 |  | <4.38 |  | 100% | 5% | 100% | 100% |  |
| COc1c(Cl)ccc(-c2nc(C(=O)NOC3CCCCO3)c(Cl)c(N)c2F)c1F (centres unmarked) [Compound 48, 4-Amino-3-chloro-6-(4-chloro-2-fluoro-3-methoxyphenyl)-5-fluoro-N-(tetrahydro-2H-pyran-2-yloxy)picolinamide] | 100% | 0% | 100% | 100% |  | <4.38 |  | 18 |  | >70 |  |  |  |  |  |
